We go through one compound from patent EP0365134A1, “Synergistic compositions of renal dopaminergic agent and angiotensin converting enzyme inhibitors” (priority 1988, dated 1990).

The experiment is described as follows: Renal clearance study in unanesthetized dogs: effective renal plasma flow (PAH clearance) and glomerular filtration rate (creatinine clearance). The class given is in vivo. The settings on record: alone. As for the experimental part:
A modification of the renal function protocol, described in the prior art, was used for renal clearance studies in adult, trained, unanesthetized, fasted, female mongrel dogs, lightly restrained on their backs on a cradle-like board constructed specifically for this purpose. […] All dogs were given an oral water load of 500 ml of tap water thirty minutes prior to initiation of the study. […] Suitable plasma levels of creatinine and p-aminohippuric acid were obtained by a thirty minute infusion of this solution prior to starting of the initial urine collection (U₁) In addition, 1.5 ml/kg of a 1% creatinine solution in phosphate buffer was injected intravenously fifteen minutes prior to collection of U₁. Replicate urine collections were obtained at ten minute intervals throughout the experiment. The bladder was emptied by an indwelling catheter and complete urine collections were assured by rinsing the bladder with 10 mls of warm water at the end of each collection interval. This procedure was followed by an air washout. Venous blood samples were drawn from an indwelling catheter at the mid-point of each clearance period. Urine volumes were recorded at the time of collection. Plasma and urine samples were stored frozen, after collection, until analyzed. Analyses for creatinine and p-aminohippuric acid were made, by colorimetry, using standard AutoAnalyzer methodologies. These analyses were made simultaneously on each sample. Peak intensities were identified electronically, recorded on "on-line" teletype, stored and subsequently analyzed mathematically by time-shared computer against appropriate standards. Data were computed from linear least square regression lines, and quality control standards were analyzed simultaneously to evaluate system reproducibility and reliability. The bladder was emptied upon beginning the study and three control clearances (U₁-U₃, Phase 1) were obtained. […] Post-drug clearance C₄-C₆, C₇-C₉, C₁₀-C₁₂ (Phases II, III and IV) were collected immediately, with no delay between C₃ and C₄. […] Four dogs were used for each treatment. All compounds were weighed as free base content.

As to `CS(=O)(=O)O.Oc1ccc(C2CNCCc3c2cc(O)c(O)c3Cl)cc1` (centres unmarked) [Fenoldopam, 6-Chloro-7,8-dihydroxy-1-(4-hydroxyphenyl)-2,3,4,5-tetrahydro-1H-3-benzazepine methyl sulfonate], the “ERPF ( % from control)” value came out at 34 ± 5 % from control (Fenoldopam 2.5 mg/kg orally), 47 ± 16 % from control (Fenoldopam 5.0 mg/kg orally), 30 ± 2 % from control (Fenoldopam 10 mg/kg orally) and 44 ± 15 % from control (Fenoldopam 20 mg/kg orally). Moreover, the “GFR ( % from control)” value (Fenoldopam 2.5 mg/kg orally) is on record as -2 ± 2 % from control, the “GFR ( % from control)” value (Fenoldopam 5.0 mg/kg orally) was 6 ± 5 % from control, the “GFR ( % from control)” value (Fenoldopam 10 mg/kg orally) is -1 ± 2 % from control and the “GFR ( % from control)” value (Fenoldopam 20 mg/kg orally) is 1 ± 3 % from control.
